Reference: US11730746B2, “17beta-heterocyclyl-digitalis like compounds for the treatment of heart failure” (priority 2018, dated 2023)
Several values for one entry are separate records, joined by “and”; a condition that tells them apart may be missing. Identical values can stand only once.

Key:
Adrenergic α1A = target: T1, Adrenergic α1A (Rattus norvegicus, UniProt P43140); test: Receptor binding 203100
T1 construct: Eurofins 203100; host or cells: crude membrane preparation
Experimental: (§1) Radioligand binding to a panel of receptors was carried out by Eurofins on crude membrane preparations according to published procedures and by using appropriate reference standard (Eurofins, CVie 101 compound code PT #1207859, study #AB76416, quote #68407-1, for Cvie Therapeutics Limited, Taiwan (R.OC.) on Mar. 5, 2017). CVie 101 was tested at the concentration of 10 μM. No significant interaction was documented, except for Sodium Channel, site 2 from rat (cat #279510), where a significant response (≥50%) was noted (Table 7).

guinea pig = test: Haemodynamics: inotropic and lethal dose in guinea pig; assay type: in vivo; conditions: for E max % increase in dP/dtmax: 90 min; for ED max: cumulative dose
Experimental: Guinea-pigs (400-450 g) were anaesthetized with urethane (1.5 g/kg ip). A microtip pressure transducer was introduced into the left ventricle through the right carotid artery to measure ventricular pressure (LVP); the transducer was coupled with a transducer amplifier. Recordings were fed to a polygraph and analyzed. A polythene cannula was inserted into a jugular vein for drug infusion. After a stabilization period, the test substance was injected at the rate of 0.16 ml/min for 90 min (Micheletti R et al. J Pharmacol Exp Ther 2002; 303:592-600).
The following parameters were obtained: heart rate (HR), left ventricular pressure (LVP), maximal velocity of pressure rise (+dP/dtmax) and decay (−dP/dtmax), ECG. For inotropy, the time elapsed until +dP/dtmax increased by 80% was identified in order to determine the ED80 (dose increasing basal +dP/dtmax by 80%). The time to the maximum increase in +dP/dtmax was also identified to determine the maximum effective dose, EDmax. Lusitropy was characterized by the dose inducing the maximum decrease in −dP/dtmax, (EDmax). As indexes of toxicity, the dose administered until the onset of arrhythmias and the dose inducing death (LD) were calculated. The safety ratio for the tested compound was also calculated as the ratio between LD and ED80.

hERG potassium channel = target: T2, hERG potassium channel (Homo sapiens, UniProt Q12809); test: Receptor binding 265900; conditions: crude membrane preparations
T2 construct: Eurofins (contract assay) 265900
Experimental: as §1

Muscarinic M5 = target: T3, Muscarinic M5 (Homo sapiens, UniProt P08912); test: Receptor binding 253010
T3 construct: Eurofins (contract assay) 253010
Experimental: as §1

Insulin = target: T4, Insulin (Rattus norvegicus, UniProt P15127); test: Receptor binding 243000
T4 construct: Eurofins (contract assay) 243000
Experimental: as §1

Muscarinic M2 = target: T5, Muscarinic M2 (Homo sapiens, UniProt P08172); test: Receptor binding 252710
T5 construct: Eurofins (contract assay) 252710
Experimental: as §1

Histamine H1 = target: T6, Histamine H1 (Homo sapiens, UniProt P35367); test: Receptor binding 239610
T6 construct: Eurofins (contract assay) 239610
Experimental: as §1

Sigma σ1 = target: T7, Sigma σ1 (Homo sapiens, UniProt Q99720); test: Receptor binding 278110
T7 construct: Eurofins (contract assay) 278110
Experimental: as §1

STZ diabetic rats = test: Haemodynamics in streptozotocin diabetic rats (echocardiography); assay type: in vivo, rat; conditions: 20 mg/kg os, after treatment, mean ± SD, n = 12
Experimental: Sprague Dawley male rats (150-175 g) were made diabetic by a single injection into the tail vein of a solution of streptozotocin (STZ, 50 mg/kg, Sigma-Aldrich), freshly prepared in 0.1 M sodium citrate buffer, pH 4.5. Control rats received citrate buffer. Fasting glycaemia was measured after 1 week and rats with values >400 mg/dl were considered diabetic.
Eight-nine weeks after STZ injection, rats were submitted to transthoracic echocardiographic and Doppler evaluation performed under pentobarbital anesthesia. Two-dimensionally guided M-mode recordings were used to obtain short-axis measurements of left ventricular end-diastolic diameter (LVEDD), left ventricular end-systolic diameter (LVESD), posterior (PW) and septal (SW) diastolic wall thickness according to the American Society of Echocardiography guidelines (Lang R M et al. Eur J Echocardiography 2006; 7:79-108). Fractional shortening was calculated as FS=(LVEDD-LVESD)/LVEDD. Relative wall thickness was calculated as PWTd+IVSTd/LVEDD.
Mitral inflow was measured by pulsed Doppler at the tips of mitral leaflets from an apical 4-chamber view to obtain early and late filling velocities (E, A) and deceleration time of early filling velocity (DT). The deceleration slope was calculated as E/DT ratio. The mitral deceleration index was calculated as DT/E ratio.
Tissue Doppler Imaging (TDI) was evaluated from the apical 4-chamber view to record septal mitral annular movements, i.e., peak myocardial systolic (s′) and early and late diastolic velocity (e′ and a′).
Compound CVie 101 was orally administered to STZ injected rats at the dose of 20 mg/kg and echocardiographic parameters were measured after 1 h.

Adrenergic α1B = target: T8, Adrenergic α1B (Rattus norvegicus, UniProt P15823); test: Receptor binding 203200
T8 construct: Eurofins 203200; host or cells: crude membrane preparation
Experimental: as §1

Ryanodine RyR3 = target: T9, Ryanodine RyR3 (Rattus norvegicus, UniProt A0ABK0LPH6); test: Receptor binding 270300
T9 construct: Eurofins (contract assay) 270300
Experimental: as §1

[1] = target: T10, Transporter, Norepinephrine (NET) (Homo sapiens, UniProt P23975); test: Receptor binding 204410
T10 construct: Eurofins (contract assay) 204410
Experimental: as §1

T4 sequence (P15127 27-759 limits assumed): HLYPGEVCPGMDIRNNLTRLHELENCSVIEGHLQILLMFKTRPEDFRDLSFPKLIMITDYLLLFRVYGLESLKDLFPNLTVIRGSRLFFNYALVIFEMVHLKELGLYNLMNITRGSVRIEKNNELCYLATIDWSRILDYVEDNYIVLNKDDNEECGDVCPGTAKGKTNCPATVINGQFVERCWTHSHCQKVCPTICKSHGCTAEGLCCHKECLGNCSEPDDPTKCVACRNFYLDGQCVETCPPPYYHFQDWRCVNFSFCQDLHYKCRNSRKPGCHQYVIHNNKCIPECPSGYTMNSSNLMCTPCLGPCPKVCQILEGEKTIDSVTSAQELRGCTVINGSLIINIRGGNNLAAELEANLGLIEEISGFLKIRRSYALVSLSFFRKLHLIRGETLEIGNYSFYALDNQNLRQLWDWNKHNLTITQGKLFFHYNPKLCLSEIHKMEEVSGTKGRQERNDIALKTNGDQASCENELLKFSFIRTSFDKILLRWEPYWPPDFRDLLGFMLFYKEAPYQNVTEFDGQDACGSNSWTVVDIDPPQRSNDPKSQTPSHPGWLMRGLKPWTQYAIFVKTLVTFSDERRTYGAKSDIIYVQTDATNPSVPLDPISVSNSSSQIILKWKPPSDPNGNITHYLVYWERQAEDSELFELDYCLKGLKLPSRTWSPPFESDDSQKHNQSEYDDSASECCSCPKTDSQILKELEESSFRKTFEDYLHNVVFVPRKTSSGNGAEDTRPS
T4 sequence (P15127 764-1383 partner limits assumed): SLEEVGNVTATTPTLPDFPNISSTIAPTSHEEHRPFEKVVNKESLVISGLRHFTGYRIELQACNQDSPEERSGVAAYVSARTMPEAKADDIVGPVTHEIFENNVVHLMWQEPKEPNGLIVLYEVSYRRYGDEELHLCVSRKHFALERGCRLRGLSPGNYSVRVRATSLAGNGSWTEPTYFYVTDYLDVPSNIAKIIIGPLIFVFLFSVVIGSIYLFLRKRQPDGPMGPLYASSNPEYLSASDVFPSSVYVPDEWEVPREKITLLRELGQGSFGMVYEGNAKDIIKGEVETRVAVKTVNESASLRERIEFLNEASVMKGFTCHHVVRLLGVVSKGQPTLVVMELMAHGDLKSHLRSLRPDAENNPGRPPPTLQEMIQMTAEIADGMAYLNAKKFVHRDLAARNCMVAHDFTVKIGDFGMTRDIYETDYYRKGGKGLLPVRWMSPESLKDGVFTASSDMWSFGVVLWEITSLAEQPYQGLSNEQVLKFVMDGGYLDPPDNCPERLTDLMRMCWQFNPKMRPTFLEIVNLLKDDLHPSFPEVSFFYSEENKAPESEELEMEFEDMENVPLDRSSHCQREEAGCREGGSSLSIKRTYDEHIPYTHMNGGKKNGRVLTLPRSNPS
T10 sequence (P23975 whole entry): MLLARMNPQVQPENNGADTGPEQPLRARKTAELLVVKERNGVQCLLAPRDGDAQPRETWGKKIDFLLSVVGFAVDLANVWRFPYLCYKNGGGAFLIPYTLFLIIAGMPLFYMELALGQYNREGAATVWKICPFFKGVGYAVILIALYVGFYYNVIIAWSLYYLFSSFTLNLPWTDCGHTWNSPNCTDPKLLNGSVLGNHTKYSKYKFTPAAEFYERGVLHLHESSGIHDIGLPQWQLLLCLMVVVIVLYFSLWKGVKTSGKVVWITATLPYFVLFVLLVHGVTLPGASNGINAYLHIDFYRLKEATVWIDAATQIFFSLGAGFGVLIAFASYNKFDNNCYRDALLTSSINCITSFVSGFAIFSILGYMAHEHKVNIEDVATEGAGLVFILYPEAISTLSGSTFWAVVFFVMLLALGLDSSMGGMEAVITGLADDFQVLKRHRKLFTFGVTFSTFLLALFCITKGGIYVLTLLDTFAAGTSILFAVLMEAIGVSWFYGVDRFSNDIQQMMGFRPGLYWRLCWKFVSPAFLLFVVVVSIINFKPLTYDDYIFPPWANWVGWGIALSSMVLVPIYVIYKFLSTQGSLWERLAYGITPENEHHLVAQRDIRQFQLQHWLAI
T8 sequence (P15823 whole entry): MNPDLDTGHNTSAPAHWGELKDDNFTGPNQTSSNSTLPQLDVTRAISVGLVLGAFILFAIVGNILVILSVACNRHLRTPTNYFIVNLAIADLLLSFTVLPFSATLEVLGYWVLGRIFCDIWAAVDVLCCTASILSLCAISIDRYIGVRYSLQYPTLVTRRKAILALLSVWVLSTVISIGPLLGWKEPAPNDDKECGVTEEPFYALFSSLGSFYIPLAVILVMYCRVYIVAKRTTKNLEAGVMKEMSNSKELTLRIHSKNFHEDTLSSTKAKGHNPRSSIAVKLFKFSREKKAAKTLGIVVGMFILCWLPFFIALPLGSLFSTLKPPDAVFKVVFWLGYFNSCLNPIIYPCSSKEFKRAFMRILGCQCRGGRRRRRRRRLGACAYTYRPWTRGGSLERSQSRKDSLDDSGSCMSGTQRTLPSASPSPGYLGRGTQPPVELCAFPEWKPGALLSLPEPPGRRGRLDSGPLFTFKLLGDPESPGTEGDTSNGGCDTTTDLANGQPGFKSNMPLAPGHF
T6 sequence (P35367 whole entry): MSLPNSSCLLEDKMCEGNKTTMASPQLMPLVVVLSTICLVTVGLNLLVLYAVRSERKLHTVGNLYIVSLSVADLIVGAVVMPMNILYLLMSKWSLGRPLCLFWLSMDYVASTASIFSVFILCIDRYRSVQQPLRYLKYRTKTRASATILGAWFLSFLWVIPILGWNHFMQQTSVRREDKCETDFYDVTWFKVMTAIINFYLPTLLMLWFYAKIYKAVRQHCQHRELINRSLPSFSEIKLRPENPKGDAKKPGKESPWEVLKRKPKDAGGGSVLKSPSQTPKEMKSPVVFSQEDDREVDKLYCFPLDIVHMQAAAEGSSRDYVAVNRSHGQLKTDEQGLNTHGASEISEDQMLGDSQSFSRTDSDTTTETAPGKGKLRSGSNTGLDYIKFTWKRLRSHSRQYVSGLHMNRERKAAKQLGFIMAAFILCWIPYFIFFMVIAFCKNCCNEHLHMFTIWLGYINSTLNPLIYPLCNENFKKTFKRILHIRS
T2 sequence (Q12809 whole entry): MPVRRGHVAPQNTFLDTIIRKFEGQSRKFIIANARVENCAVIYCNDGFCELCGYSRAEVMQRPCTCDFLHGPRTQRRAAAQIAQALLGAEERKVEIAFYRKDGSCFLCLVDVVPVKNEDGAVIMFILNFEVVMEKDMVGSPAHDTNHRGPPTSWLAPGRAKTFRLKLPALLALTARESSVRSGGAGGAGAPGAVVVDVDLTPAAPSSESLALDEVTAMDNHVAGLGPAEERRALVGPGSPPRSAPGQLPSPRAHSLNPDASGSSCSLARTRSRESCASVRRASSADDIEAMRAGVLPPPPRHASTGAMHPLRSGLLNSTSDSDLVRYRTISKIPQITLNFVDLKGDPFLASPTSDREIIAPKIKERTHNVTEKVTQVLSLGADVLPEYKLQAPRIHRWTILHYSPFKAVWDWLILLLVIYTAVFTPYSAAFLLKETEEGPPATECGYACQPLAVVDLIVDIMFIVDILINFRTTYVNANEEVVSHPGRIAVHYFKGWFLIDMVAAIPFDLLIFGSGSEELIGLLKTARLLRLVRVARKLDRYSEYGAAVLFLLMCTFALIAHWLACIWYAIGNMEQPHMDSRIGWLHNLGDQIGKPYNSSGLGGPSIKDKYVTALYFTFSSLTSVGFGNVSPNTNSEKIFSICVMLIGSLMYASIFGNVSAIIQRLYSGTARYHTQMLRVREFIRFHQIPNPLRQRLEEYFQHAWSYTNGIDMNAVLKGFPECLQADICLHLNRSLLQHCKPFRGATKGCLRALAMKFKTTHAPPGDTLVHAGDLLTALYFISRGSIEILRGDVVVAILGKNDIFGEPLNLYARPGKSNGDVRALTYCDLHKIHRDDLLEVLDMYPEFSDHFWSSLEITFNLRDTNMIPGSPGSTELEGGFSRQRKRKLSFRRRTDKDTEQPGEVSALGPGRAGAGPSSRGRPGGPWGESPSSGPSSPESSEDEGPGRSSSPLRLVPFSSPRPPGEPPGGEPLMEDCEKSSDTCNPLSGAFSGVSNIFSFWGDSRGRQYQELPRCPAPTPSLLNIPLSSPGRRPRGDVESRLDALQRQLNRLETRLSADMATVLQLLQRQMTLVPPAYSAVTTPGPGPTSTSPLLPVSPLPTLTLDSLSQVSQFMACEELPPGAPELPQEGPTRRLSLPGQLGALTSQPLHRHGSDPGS
T5 sequence (P08172 whole entry): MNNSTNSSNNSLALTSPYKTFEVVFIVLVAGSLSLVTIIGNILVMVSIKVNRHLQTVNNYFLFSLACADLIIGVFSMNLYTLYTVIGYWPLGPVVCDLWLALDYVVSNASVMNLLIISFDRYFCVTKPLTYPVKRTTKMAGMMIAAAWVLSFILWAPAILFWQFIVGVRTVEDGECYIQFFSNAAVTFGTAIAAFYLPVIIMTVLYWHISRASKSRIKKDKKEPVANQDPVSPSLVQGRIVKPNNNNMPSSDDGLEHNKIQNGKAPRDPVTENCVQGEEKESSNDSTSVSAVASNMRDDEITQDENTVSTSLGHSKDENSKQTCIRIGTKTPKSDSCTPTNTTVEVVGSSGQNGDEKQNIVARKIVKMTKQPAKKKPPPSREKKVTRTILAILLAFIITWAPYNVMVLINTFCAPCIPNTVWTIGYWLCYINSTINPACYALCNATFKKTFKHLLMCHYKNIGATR
T7 sequence (Q99720 whole entry): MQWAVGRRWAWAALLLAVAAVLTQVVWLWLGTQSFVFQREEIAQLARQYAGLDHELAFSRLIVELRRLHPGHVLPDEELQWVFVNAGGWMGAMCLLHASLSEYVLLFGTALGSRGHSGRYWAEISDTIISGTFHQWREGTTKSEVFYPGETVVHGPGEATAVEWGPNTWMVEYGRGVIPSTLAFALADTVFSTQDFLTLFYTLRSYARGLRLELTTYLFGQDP

`C[C@]12CC[C@H](O)C[C@H]1CCC1C2CC[C@]2(C)[C@@H](c3c[nH]cn3)CC[C@]12O` (stereo partly drawn) [CVie 101, 3β-hydroxy-5β-10β-methyl-13β-methyl-14β-hydroxy-17β-(imidazol-4-yl)androstane] was tested, and the inhibition at 10 µM (Adrenergic α1A) was 1%, the Dead/treated number (guinea pig; i.v. infusion 0.2 mg/kg/min) was 1/8 and the ED80 (guinea pig; i.v. infusion 0.2 mg/kg/min) was 1.6 mg/kg and 1.60 mg/kg. For the same compound, the Lethal dose (guinea pig; i.v. infusion 0.2 mg/kg/min) was greater than 18 mg/kg, the “E max % increase in dP/dtmax” value (guinea pig; i.v. infusion 0.2 mg/kg/min) was 163.6% and the ED max (guinea pig; i.v. infusion 0.2 mg/kg/min) was 3.73 mg/kg. The Dead/treated number (guinea pig; i.v. infusion 0.5 mg/kg/min) was 8/8, the ED80 (guinea pig; i.v. infusion 0.5 mg/kg/min) was 2.74 mg/kg and the Lethal dose (guinea pig; i.v. infusion 0.5 mg/kg/min) was 28.2 mg/kg. The “E max % increase in dP/dtmax” value (guinea pig; i.v. infusion 0.5 mg/kg/min) was 216.8%, the ED max (guinea pig; i.v. infusion 0.5 mg/kg/min) was 5.08 mg/kg and the LD/ED80 (guinea pig; i.v. infusion 0.5 mg/kg/min, safety ratio) was 11.32. For the same compound, the inhibition at 10 µM (hERG potassium channel) was 4%, the inhibition at 10 µM (Muscarinic M5) was 21% and the inhibition at 10 µM (Insulin) was -7%. It also gave an inhibition at 10 µM (Muscarinic M2) of 7%, an inhibition at 10 µM (Histamine H1) of 13% and an inhibition at 10 µM (Sigma σ1) of 23%. For the same compound, the “A (late filling velocity of mitral inflow)” value (STZ diabetic rats) was 0.76 ± 0.17 m/s, the “A′ (TDI late relaxation velocity)” value (STZ diabetic rats) was 28.7 ± 6.6 cm/s and the “CO (cardiac output)” value (STZ diabetic rats) was 219.0 ± 76.7 mL/min. For the same compound, the “DT (deceleration time of E wave)” value (STZ diabetic rats) was 47.7 ± 4.8 ms, the “DT/E (mitral deceleration index)” value (STZ diabetic rats) was 51.0 ± 10.2 ms·s/m and the “E (early filling velocity of mitral inflow)” value (STZ diabetic rats) was 0.96 ± 0.14 m/s. The “E/A (index of LV function)” value (STZ diabetic rats) was 1.29 ± 0.22, the “E/DT (deceleration slope)” value (STZ diabetic rats) was 20.3 ± 4.1 m/s2 and the “E/e′ (index of LV filling pressure)” value (STZ diabetic rats) was 38.0 ± 4.9. For the same compound, the “E′ (TDI early relaxation velocity)” value (STZ diabetic rats) was 25.2 ± 1.9 cm/s, the “FS (fractional shortening)” value (STZ diabetic rats) was 45.1 ± 3.4 % and the “HR (heart rate)” value (STZ diabetic rats) was 262 ± 48.1 beat/min. The “SV (stroke volume)” value (STZ diabetic rats) was 0.82 ± 0.21 ml/beat, the “S′ (TDI contraction velocity)” value (STZ diabetic rats) was 23.8 ± 3.6 cm/s and the inhibition at 10 µM (Adrenergic α1B) was 0%. The inhibition at 10 µM (Ryanodine RyR3) was 8% and the inhibition at 10 µM [1] was 2%.
